What is called inhibition is the relative decrease from the control value, in per cent. For orientation: mortality means the share of the test organisms that died. The low end stands for more survivors, the high end for fewer survivors.

Read-outs that look alike come from different tables or passages of the source.

Data set [1] concerns C6 cells. The experiment in a line: C6 SRB growth assay. The class given is cell-based, rat. Conditions: for IC50: read-out: C6 SRB IC50. (Sulforhodamine B stains cellular protein and so reports cell mass.)
Data set [2] is described as follows: LD10. The conditions noted are these: in vivo.
Data set [3] addresses PDGFR (Homo sapiens, UniProt P09619). Description: Receptor tyrosine kinase inhibition, PDGFR. It is filed as cell-based. More on the design: U1242 (PDGF-β receptor); host or cells: U1242 glioma cells (ELISA). The conditions noted are these: read-out: PDGFR IC50. On the procedure:
(§1) For western blotting, cells were plated in 2 mL growth medium into 6-well dishes (500,000 cells per well) and allowed to attach overnight. […] The plates were then incubated overnight at 37° C., ambient CO2. […] After a 7 min incubation at room temperature with ligand, the plates were put on ice and washed three times with 1 mL ice-cold PBS plus 1 mM orthovanadate. Lysis was achieved by pipetting cells in 0.5 mL of buffer containing 50 mM Tris, pH 7.4, 10% glycerol, 1% NP-40, 2 mM EDTA, 1 mM sodium vanadate (Na3 VO4), 10 mM pyrophosphate, 1 mM PMSF, […]. A 300 μL aliquot of each lysate was immediately added to 100 μL 4×Laemmli sample buffer ([…] Tris pH 6.9, 20% glycerol, 7% SDS, 5 mM EDTA, 5% β-mercaptoethanol) containing phosphatase inhibitors, 2 mM Na3 VO4 and 10 mM pyrophosphate. Samples were boiled for 5 min, frozen in dry ice-ethanol, and stored at -80° C. […] The integrity of the protein-to-membrane transfer was determined by staining with 1% Ponceau S in 5% acetic acid for 5 min. After destaining in several distilled water rinses, the membrane was soaked overnight in blocking buffer containing 5% milk in Tris-buffered saline, 0.05% Tween 20. Phosphotyresine was detected by incubating the membrane (1 hr at room temperature) with an anti-phosphotyosine antiserum diluted in blocking buffer at 1:3000. […] The antibodies were visualized using ECL reagent from Amersham and by exposure to Fuji RX film.
(§2) For ELISA assays, cells were grown to 80-90% confluency in growth medium and seeded in 96-well tissue culture plates in 0.5% serum at 25,000 to 30,000 cells per well. After overnight incubation in 0.5% serum-containingmedium, cells were changed to serum-free medium and treated with test compound for 2 hr in a 5% CO2, 37° C. incubator. […] Lysates were incubated with shaking for 1 hr at room temperature. The plates were washed with TBST four times and then incubated with polyclonol anti-phosphotyrosine antibody at room temperature for 30 min. Excess anti-phosphotyrosine antibody was removed by rinsing the plate with TBST four times. Goat anti-rabbit IgG antibody was added to the ELISA plate for 30 min at room temperature followed by rinsing with TBST four more times.
(§3) The ability of different compound to inhibit different receptor tyrosine kinases was tested.

Data set [4] deals with T1, EGFR (Homo sapiens, UniProt P00533).
T1 construct: expressed in transfected cells; host or cells: NIH3T3 mouse fibroblasts, retroviral vector
T1 sequence (P00533 25-1210): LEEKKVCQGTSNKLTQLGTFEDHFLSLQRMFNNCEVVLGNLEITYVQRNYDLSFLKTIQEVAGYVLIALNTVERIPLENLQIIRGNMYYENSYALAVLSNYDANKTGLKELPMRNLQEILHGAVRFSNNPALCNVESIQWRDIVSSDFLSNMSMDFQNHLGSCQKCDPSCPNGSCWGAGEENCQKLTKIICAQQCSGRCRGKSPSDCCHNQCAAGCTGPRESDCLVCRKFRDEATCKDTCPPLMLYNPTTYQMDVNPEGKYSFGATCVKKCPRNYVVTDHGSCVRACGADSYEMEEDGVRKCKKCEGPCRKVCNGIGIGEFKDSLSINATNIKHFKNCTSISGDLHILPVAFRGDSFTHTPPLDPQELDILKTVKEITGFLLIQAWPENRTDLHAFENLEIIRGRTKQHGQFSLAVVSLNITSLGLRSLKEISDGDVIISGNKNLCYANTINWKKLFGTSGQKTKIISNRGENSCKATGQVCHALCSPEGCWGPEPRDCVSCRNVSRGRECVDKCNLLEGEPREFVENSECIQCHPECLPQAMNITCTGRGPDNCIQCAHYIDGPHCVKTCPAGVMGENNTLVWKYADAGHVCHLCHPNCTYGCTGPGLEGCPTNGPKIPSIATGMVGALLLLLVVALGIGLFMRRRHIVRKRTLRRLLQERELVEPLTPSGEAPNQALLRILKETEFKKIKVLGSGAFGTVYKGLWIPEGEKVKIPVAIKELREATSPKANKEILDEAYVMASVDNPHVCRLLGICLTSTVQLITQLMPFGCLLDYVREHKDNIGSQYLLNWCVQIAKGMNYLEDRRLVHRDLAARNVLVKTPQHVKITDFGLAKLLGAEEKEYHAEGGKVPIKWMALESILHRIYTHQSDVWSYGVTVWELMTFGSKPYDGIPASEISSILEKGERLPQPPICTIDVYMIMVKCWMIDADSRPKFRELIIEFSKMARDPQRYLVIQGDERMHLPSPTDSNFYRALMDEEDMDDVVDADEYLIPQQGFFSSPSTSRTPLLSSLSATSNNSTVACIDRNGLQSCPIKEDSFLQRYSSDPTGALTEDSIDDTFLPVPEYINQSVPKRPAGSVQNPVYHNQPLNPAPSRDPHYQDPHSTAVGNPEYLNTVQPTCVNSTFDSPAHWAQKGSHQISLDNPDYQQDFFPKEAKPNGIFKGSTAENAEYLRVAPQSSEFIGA
Description: Receptor tyrosine kinase inhibition, EGFR. The class given is cell-based. Conditions: read-out: EGFR ID50. On the procedure:
(§4) For western blotting, cells were plated in 2 mL growth medium into 6-well dishes (500,000 cells per well) and allowed to attach overnight. The medium was replaced with 2 mL MCDB 105 (UCSF Cell Culture Facility) supplemented with 1% FBS. The plates were then incubated overnight at 37° C., ambient CO2. […] After a 7 min incubation at room temperature with ligand, the plates were put on ice and washed three times with 1 mL ice-cold PBS plus 1 mM orthovanadate. Lysis was achieved by pipetting cells in 0.5 mL of buffer containing 50 mM Tris, pH 7.4, 10% glycerol, 1% NP-40, 2 mM EDTA, 1 mM sodium vanadate (Na3 VO4), 10 mM pyrophosphate, 1 mM PMSF, […]. A 300 μL aliquot of each lysate was immediately added to 100 μL 4×Laemmli sample buffer ([…] Tris pH 6.9, 20% glycerol, 7% SDS, 5 mM EDTA, 5% β-mercaptoethanol) containing phosphatase inhibitors, 2 mM Na3 VO4 and 10 mM pyrophosphate. Samples were boiled for 5 min, frozen in dry ice-ethanol, and stored at -80° C. Proteins were resolved by SDS-PAGE (Bio-Rad Miniprotean II) and transferred to nitrocellulose membrane (Schleicher & Schuell) at 120 volts for 1 hr at room temperature in buffer containing 25 mM Tris pH 8.3, 20% methanol, 0.2 M glycine, 0.1% SDS. The integrity of the protein-to-membrane transfer was determined by staining with 1% Ponceau S in 5% acetic acid for 5 min. After destaining in several distilled water rinses, the membrane was soaked overnight in blocking buffer containing 5% milk in Tris-buffered saline, 0.05% Tween 20. Phosphotyresine was detected by incubating the membrane (1 hr at room temperature) with an anti-phosphotyosine antiserum diluted in blocking buffer at 1:3000. For C6 cells, PDGF-β receptor content in the lysates was confirmed in duplicate sample lanes by western blotting using an antibody specific for PDGF-β receptor (UBI). The antibodies were visualized using ECL reagent from Amersham and by exposure to Fuji RX film.
(§5) For ELISA assays, cells were grown to 80-90% confluency in growth medium and seeded in 96-well tissue culture plates in 0.5% serum at 25,000 to 30,000 cells per well. After overnight incubation in 0.5% serum-containingmedium, cells were changed to serum-free medium and treated with test compound for 2 hr in a 5% CO2, 37° C. incubator. Cells were then stimulated with ligand for 5-10 min followed by lysis with HNTG (20 mM Hepes, 150 mM NaCl, 10% glycerol, 5 mM EDTA, 5 mM Na3 VO4 0.2% Triton X-100, and 2 mM NaPyr). Cell lysates (0.5 mg/well in PBS) were transferred to ELISA plates previously coated with receptor-specific antibody and which had been blocked with 5% milk in TBST (50 mM Tris-HCl pH 7.2, 150 mM NaCl and 0.1% Triton X-100) at room temperature for 30 min. Lysates were incubated with shaking for 1 hr at room temperature. The plates were washed with TBST four times and then incubated with polyclonol anti-phosphotyrosine antibody at room temperature for 30 min. Excess anti-phosphotyrosine antibody was removed by rinsing the plate with TBST four times. Goat anti-rabbit IgG antibody was added to the ELISA plate for 30 min at room temperature followed by rinsing with TBST four more times.
as §3

Data set [5] concerns the target T2, FLK-1 (Mus musculus, UniProt P35918).
T2 construct: expressed in transfected cells; host or cells: NIH3T3 mouse fibroblasts, retroviral vector
Description: Receptor tyrosine kinase inhibition, FLK-1. It is filed as cell-based. Conditions: read-out: FLK-1 IC50. On the procedure:
as §4, §5, §3

The subject of data set [6] is HER2. Description: Receptor tyrosine kinase inhibition, HER2. It is filed as cell-based. The conditions noted are these: read-out: HER2 IC50. On the procedure: as §4, §5, §3
For data set [7], the target named is T3, PDGF-R (U1242) (Homo sapiens, UniProt P09619).
T3 construct: U1242 (PDGF-β receptor); host or cells: U1242 MG glioma cells
T3 sequence (P09619 33-1106): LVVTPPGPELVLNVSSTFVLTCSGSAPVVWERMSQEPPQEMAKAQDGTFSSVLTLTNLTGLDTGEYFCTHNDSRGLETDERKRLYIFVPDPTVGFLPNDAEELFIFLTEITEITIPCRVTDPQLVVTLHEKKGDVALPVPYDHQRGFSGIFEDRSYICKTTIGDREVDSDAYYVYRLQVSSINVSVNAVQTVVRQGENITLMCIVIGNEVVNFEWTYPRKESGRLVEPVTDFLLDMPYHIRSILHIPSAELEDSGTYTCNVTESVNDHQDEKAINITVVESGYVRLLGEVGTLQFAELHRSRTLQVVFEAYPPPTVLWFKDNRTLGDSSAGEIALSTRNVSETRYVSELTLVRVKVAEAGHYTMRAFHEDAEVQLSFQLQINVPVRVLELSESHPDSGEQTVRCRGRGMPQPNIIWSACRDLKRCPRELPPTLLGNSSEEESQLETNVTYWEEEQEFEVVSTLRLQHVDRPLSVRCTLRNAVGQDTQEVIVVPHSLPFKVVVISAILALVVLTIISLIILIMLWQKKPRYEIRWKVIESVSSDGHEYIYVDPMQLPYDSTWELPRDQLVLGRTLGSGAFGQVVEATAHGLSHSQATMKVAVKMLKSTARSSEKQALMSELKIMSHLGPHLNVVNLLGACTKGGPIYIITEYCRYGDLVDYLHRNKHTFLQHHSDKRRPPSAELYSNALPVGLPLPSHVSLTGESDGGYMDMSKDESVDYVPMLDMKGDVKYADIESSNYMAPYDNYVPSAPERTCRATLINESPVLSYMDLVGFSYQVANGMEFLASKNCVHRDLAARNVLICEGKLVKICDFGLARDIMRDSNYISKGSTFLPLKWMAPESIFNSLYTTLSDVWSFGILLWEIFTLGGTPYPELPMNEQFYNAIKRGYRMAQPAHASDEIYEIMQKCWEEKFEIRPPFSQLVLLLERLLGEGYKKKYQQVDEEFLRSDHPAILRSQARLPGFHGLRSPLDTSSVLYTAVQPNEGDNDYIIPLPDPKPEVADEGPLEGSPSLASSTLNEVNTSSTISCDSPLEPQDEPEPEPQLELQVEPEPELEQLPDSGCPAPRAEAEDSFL
The experiment in a line: U1242 kinase (PDGF-R activity). The class given is cell-based. On the procedure: as §1, §2
PDGF-R activity, C6 SRB, and in vivo efficacy were measured using the procedures described in the appendices above.

Data set [8] can be described thus: C6 glioma SC xenograft in mice. It is filed as in vivo. Conditions: rat, in vivo, ip. On the procedure: (§6) Cell lines were grown in appropriate medium (see Appendix 1). Cells were harvested at or near confluency with 0.05% Trypsin-EDTA and pelleted at 450×g for 10 min. Pellets were resuspended in sterile PBS or media (without FBS) to a particular concentration and the cells were implanted into the hindflank of mice. Tumor growth was measured over 3 to 6 weeks using venier calipers. Tumor volumes were calculated as a product of length×width×height unless otherwise indicated. P values were calculated using the Students' t-test.
(§7) C6 and SKOV-3(T) cells were grown in culture, as described in "cell growth" above, and implanted into the hind flank of a female Balb/c nu/nu mouse at 3×10^6 cells (for C6 experiments), or 1×10^7 cells (for SKOV-3 experiments) in […] of PBS on Day 0. U87MG, U118MG or U373MG human glioblastoma cells (obtained from the ATCC), or A4312 were also implanted into athymic mice. […] Tumors were measured using venier calipers and tumor volume was calculated as a product of tumor length, width, and height.

In data set [9] the test system is C6 glioma cells. The experiment in a line: C6 glioma SC xenograft in mice. It is filed as in vivo. On the procedure:
as §6, §7

Data set [10] concerns PDGFR. Description: Receptor tyrosine kinase inhibition, PDGFR. The conditions noted are these: W = done in Western assay; read-out: PDGFR IC50 (W). The class given is cell-based. On the procedure:
as §1, §2, §3

Sequence of PDGFR (Homo sapiens, UniProt P09619) (P09619 33-1106): as above
T2 sequence (P35918 20-1345): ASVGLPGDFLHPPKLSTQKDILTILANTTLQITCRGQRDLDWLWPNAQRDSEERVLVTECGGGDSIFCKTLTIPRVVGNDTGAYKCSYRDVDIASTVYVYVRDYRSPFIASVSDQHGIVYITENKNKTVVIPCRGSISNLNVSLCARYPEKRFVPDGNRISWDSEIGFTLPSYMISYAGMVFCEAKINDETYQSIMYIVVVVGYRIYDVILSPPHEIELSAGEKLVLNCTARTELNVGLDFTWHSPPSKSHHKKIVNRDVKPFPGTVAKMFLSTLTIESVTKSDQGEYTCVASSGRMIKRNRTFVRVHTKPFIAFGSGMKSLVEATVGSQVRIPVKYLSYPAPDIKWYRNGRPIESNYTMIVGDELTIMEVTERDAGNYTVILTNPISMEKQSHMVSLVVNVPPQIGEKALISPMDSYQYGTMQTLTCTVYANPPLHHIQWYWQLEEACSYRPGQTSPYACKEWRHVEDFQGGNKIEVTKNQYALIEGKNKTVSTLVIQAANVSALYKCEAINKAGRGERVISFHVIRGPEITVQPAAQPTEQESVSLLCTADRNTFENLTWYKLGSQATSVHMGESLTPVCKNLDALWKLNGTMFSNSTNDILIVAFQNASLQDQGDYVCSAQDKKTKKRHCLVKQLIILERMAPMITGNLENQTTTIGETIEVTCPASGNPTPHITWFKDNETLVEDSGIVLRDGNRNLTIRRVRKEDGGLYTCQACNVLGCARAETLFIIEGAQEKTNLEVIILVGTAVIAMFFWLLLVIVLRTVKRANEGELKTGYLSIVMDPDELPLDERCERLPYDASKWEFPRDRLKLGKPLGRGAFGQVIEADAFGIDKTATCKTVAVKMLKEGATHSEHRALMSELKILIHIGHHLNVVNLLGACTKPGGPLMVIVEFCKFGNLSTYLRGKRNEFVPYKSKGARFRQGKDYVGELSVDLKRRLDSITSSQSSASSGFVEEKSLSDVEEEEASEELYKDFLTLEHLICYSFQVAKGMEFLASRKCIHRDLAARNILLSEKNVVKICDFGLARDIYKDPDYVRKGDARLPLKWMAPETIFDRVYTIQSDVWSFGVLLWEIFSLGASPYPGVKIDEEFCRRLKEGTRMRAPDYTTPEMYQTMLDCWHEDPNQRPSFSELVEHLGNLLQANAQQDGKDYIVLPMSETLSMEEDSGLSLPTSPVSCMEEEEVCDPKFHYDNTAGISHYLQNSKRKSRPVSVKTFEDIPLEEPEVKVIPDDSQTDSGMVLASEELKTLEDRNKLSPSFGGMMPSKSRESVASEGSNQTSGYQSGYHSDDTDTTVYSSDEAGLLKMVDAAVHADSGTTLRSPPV

For the compound `Cc1noc(C)c1C(=O)Nc1ccc(C(F)(F)F)cc1` [Compound A13, N-trifluoromethlyphenyl 3,5-dimethylisoxazole-4-carboxamide], in data set [1] (Rattus norvegicus, C6, at 25 μM), the inhibition at 25 µM was around 30%. The IC50 in data set [1] (Rattus norvegicus, C6) is above 25 µM. The LD10 in data set [2] is above 200 mg/kg.
Turning to `CN(C)CCn1cc(C=C(C#N)c2[nH]nc(N)c2C#N)c2ccccc21` [Compound D18], the IC50 in [3] is 34 µM; in data set [4] it was above 50 µM; in [5], above 50 µM; in data set [6], above 50 µM.
On to `N#CC(=Cc1c[nH]c2ccccc12)c1c(C#N)c(N)nn1-c1ccccc1` [Compound D20], for which the IC50 in [3] was 14 µM; in data set [4] it was above 50 µM; in data set [5], above 50 µM; in data set [6], above 50 µM.
In the case of `Cc1cc2nc(C(=O)O)c(-c3ccccc3)nc2cc1C` [Compound G25], the IC50 in data set [3] is 0.9 µM; in data set [7] (read-out: U1242 KINASE IC50), 1 µM; in data set [4], above 50 µM; in data set [5], above 50 µM; in [1] (Rattus norvegicus, C6), 50 µM; in [6] it was above 50 µM.
Turning to `Cc1cc2ncc(-c3ccc([N+](=O)[O-])cc3)nc2cc1C` [Compound G27, 2-(4-nitrophenyl) 6.7 dimethylquinoxaline], the IC50 is 48 µM in [3], above 100 µM in data set [4], above 50 µM in data set [5] and above 50 µM in [6].
In the case of `Cc1cc2ncc(Nc3cccc(I)c3)nc2cc1C` [Compound G29], the IC50 was 23 µM in data set [3]; 23.2 µM in data set [7] (read-out: U1242 KINASE IC50); below 0.8 µM in [4]; 10 µM in data set [5]; above 13 µM in [1] (Rattus norvegicus, C6); 34 µM in data set [6].
For the compound `Cc1cc2ncc(Nc3ccc(I)cc3)nc2cc1C` [Compound G30], the IC50 in [3] is 32 µM; in [7] (read-out: U1242 KINASE IC50), 32.5 µM; in data set [4], above 100 µM; in data set [5], 10 µM; in data set [1] (Rattus norvegicus, C6), 2 µM; in data set [6], 34 µM.
For `CC1c2nc3ccccc3c(=O)n2C(c2ccc(O)c(O)c2)N1Cc1ccccc1` (stereo not drawn) [Compound H10], the IC50 in [7] (W = done in Western assay, read-out: U1242 KINASE IC50 (W)) is 25 µM; in data set [7] (read-out: U1242 KINASE IC50), above 50 µM; in [5], above 50 µM; in data set [10] it was 25 µM; in data set [1] (Rattus norvegicus, C6), 13 µM. In [8] (30 mg/kg, at d17), this compound yielded a mortality at 408 h of 14.3%. Moreover, the inhibition in vivo at 30 mg/kg in data set [9] (Rattus norvegicus, C6 glioma, sc, at 30 mg/kg, read-out: C6 in vivo EFFICACY) is 52%. Also, the LD10 in data set [2] came out at 75 mg/kg.
On to `CC1c2nc3ccccc3c(=O)n2C(c2ccc(O)cc2)N1Cc1ccccc1` (stereo not drawn) [Compound H13], for which the IC50 is above 50 µM in [7] (read-out: U1242 KINASE IC50); 20 µM in data set [1] (Rattus norvegicus, C6); 10.5 µM in [1]. For the same compound, the mortality in data set [8] (40 mg/kg (J10 at d18, G24 at d15)) came to 0%. In addition, the mortality at 192 h in [8] (100 mg/kg (E15 at d8)) came out at 0%. Moreover, the inhibition in vivo at 40 mg/kg in data set [9] (Rattus norvegicus, C6 glioma, sc, at 40 mg/kg, read-out: C6 in vivo EFFICACY) worked out at 0%. In addition, in [9] (Rattus norvegicus, C6 glioma, sc, at 100 mg/kg, read-out: C6 in vivo EFFICACY), the inhibition in vivo at 100 mg/kg is 41%. Also, in data set [2], the LD10 was above 400 mg/kg.
For the compound `N#CCS(=O)(=O)C(C#N)=Cc1cc(O)c(O)c(Br)c1` [Compound J11], the IC50 in [3] is 3 µM; in [7] (read-out: U1242 KINASE IC50), 3.1 µM; in [4], above 100 µM; in data set [5], above 25 µM; in data set [1] (Rattus norvegicus, C6) it was 14 µM; in data set [6], above 50 µM.
As to `COc1cc2ncnc(Nc3ccccc3)c2cc1OC` [Compound P14], the IC50 is 26 µM in data set [3], above 50 µM in [4], above 200 µM in data set [5] and 10 µM in [6].
As to `COCCCN1C(=O)SC(=Cc2ccccc2Cl)C1=O` [Compound P15], the IC50 in data set [3] was 46 µM; in [4] it was above 100 µM; in data set [5], above 50 µM; in data set [6] it was above 50 µM.
As to `COc1cc(C=C(C#N)C(=O)NCCCc2ccccc2)cc(I)c1O` [Compound P16], in data set [8] (60 mg/kg (G24 at d10)), the mortality at 240 h was 0%. Also, in data set [9] (at 60 mg/kg), the “C6 in vivo EFFICACY” value is “no effect”. The IC50 in data set [1] (Rattus norvegicus, C6) worked out at 17 µM. This compound also returned an LD10 in data set [2] above 400 mg/kg.
Regarding `COc1cc2ncnc(N3CCc4ccccc43)c2cc1OC` [Compound P17], in [1] (Rattus norvegicus, C6), the IC50 turned out to be 12 µM. Moreover, in [2], the LD10 is reported as above 100 mg/kg.

The values are drawn from patent US6331555A, “Treatment of platelet derived growth factor related disorders such as cancers” (priority 1999, dated 2001).
